BindingDB's records for PubMed 9223589 (University of Tours, 1997)
Several values for one entry are separate records, joined by “and”; a condition that tells them apart may be missing. Equal entries are not always repeated.

What was measured:
[1] = molecular target: Norepinephrine transporter (Rattus norvegicus, UniProt Q9JIA2)
[2] = molecular target: Sodium-dependent dopamine transporter (Rattus norvegicus, UniProt P23977)
[3] = molecular target: Sodium-dependent serotonin transporter (Rattus norvegicus, UniProt P31652)
Sequence of Sodium-dependent serotonin transporter (P31652 whole entry): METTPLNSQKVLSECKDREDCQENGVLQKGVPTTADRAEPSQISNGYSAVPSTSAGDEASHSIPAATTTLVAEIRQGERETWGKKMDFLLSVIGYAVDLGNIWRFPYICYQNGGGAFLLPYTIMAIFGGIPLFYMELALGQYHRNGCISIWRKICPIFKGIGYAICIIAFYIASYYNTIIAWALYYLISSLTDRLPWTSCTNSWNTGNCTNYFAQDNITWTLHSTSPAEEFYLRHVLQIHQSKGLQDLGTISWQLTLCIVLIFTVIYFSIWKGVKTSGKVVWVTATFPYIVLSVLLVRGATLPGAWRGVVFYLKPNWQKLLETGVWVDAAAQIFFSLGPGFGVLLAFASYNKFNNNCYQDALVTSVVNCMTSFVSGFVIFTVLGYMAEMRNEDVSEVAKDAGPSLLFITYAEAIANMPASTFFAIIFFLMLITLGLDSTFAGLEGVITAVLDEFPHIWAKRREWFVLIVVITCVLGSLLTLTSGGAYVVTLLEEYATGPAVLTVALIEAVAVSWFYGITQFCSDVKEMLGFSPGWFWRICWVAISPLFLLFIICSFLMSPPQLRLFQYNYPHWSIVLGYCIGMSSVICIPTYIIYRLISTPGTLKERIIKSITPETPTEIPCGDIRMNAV

Sequence of Sodium-dependent dopamine transporter (P23977 whole entry): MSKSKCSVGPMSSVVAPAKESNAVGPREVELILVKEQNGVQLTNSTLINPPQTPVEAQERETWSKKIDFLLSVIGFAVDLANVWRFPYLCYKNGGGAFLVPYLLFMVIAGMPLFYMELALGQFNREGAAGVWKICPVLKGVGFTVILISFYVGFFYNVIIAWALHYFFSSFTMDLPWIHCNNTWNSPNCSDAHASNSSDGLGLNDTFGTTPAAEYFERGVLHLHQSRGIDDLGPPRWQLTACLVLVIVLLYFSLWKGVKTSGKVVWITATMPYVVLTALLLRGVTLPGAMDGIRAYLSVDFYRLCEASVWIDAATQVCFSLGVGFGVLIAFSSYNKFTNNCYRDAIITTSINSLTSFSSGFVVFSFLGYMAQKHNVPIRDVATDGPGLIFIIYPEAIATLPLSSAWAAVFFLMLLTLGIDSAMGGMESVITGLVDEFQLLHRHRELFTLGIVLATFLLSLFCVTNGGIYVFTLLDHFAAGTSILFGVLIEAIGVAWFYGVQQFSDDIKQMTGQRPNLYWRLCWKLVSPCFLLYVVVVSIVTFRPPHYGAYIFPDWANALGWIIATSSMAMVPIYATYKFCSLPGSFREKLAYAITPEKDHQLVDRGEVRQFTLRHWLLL

`COC(=O)[C@H]1C(c2ccc(Cl)c(Cl)c2)CC2CCC1N2C/C=C/I` (stereo partly drawn) [(2S,8R)-3-(3,4-Dichloro-phenyl)-8-((E)-3-iodo-allyl)-8-aza-bicyclo[3.2.1]octane-2-carboxylic acid methyl ester] showed a Ki [1] of 500 nM.

For `O[C@]1(c2ccc(Cl)cc2)c2ccccc2C2=NCCN21` [Mazanor], the Ki [2] was 50 nM and 12 nM.

Work on `COC(=O)[C@H]1[C@@H](c2ccc(I)cc2)C[C@@H]2CC[C@H]1N2C` [RTI 55, (exo,exo)-isomer, Iodine (125) labeled] yielded a Ki [1] of 80 nM, a Ki [3] of 3.1 nM and a Ki [2] of 27.5 nM.
